Reference: patent US8987243B2, “11-(2-pyrrolidin-1-yl-ethoxy)-14,19-dioxa-5,7,26-triaza-tetracyclo[19.3.1.1(2,6).1(8,12)]heptacosa-maleate salt” (CTI Biopharma Corp., priority 2008, dated 2015)
Counter-ions that a name gives are not always drawn.

Assays:
Format in all cases: physicochemical
[1] = Gravimetric Vapour Sorption (GVS), with XRPD post GVS; settings: for solid form / crystalline pattern by XRPD post GVS: compared with starting material
[2] = Stress tests: storage at elevated temperature and humidity, analysed by XRPD
Method: The group three material was stressed under conditions which might cause it to convert to group one material or, indeed, another hydrated or polymorphic form. Thus samples were stored at 40° C./75% RH and also at 60° C./96% RH and analysed at regular intervals by XRPD.
The stability of the maleate salt form A material was tested in harsher conditions, when the samples were kept for a week in the humidity chamber at 60° C. and 96% RH.
The samples of both hydrochloride (comparative) and maleate salts were subjected to X-ray diffraction to determine the characteristic X-ray diffraction pattern. The conditions used were as follows: X-Ray Powder Diffraction patterns were collected on a Siemens D5000 diffractometer using Cu Kα radiation (40 kV, 40 mA), θ-θ goniometer, divergence of V20 and receiving slits, a graphite secondary monochromator and a scintillation counter. The instrument is performance checked using a certified Corundum standard (NIST 1976).

[3] = Variable temperature X-ray diffraction; settings: variable temperature XRPD
Method: Samples run under non-ambient conditions were mounted on a silicon wafer with heat-conducting compound. The sample was then heated to the appropriate temperature at ca. 10° C.·min^−1 and subsequently held isothermally for ca 2 minutes before data collection was initiated. In order to probe the stability of the samples of the maleate salts variable temperature X-ray diffraction was carried out. Thus, the salts were scanned under X-ray diffraction conditions at a series of temperatures and the characteristic peaks determined.

[4] = Thermal gravimetric analysis (TGA); settings: for water lost in the first phase of the TGA: hydrochloride
Method: The samples of both hydrochloride (comparative) and maleate salts were subjected to thermal gravimetric analysis and differential scanning calorimetry under the following conditions. DSC data were collected on a TA Instruments Q2000 equipped with a 50 position auto-sampler. The instrument was calibrated for energy and temperature calibration using certified indium. Typically 0.5-3 mg of each sample, in a pin-holed aluminium pan, was heated at 10° C.·min^−1 from 25° C. to 270° C.
TGA data were collected on a TA Instruments Q500 TGA, equipped with a 16 position auto-sampler. The instrument was temperature calibrated using certified Alumel. Typically 5-30 mg of each sample was loaded onto a pre-tared platinum crucible and aluminium DSC pan, and was heated at 10° C.·min^−1 from ambient temperature to 300° C. A nitrogen purge at 60 ml·min^−1 was maintained over the sample. The instrument control software was Thermal Advantage v4.6.6 and the data were analysed using Universal Analysis v4.3A. Alternatively, TGA data were collected on a Mettler TGA/SDTA 851e equipped with a 34 position auto-sampler. The instrument was temperature calibrated using certified indium. Typically 5-30 mg of each sample was loaded onto a pre-weighed aluminium crucible and was heated at 10° C.·min^−1 from ambient temperature to 300° C. A nitrogen purge at 50 ml·min^−1 was maintained over the sample. The instrument control and data analysis software was STARe v9.01.

[5] = Maturation studies in 27 solvents, solids analysed by XRPD; settings: 4 h heat/cool cycles 50° C./r.t., 24 h
Method: In order to determine the propensity of polymorphism for the maleate salt the material was maturated in 27 different solvents. A small amount of solid was slurried with the corresponding solvent (see Table 4 below) and stored in the incubator and subjected to 4 h-heat/cool cycles at 50° C./r.t. for 24 h. The solvents were then removed under vacuum, and the remaining solids analysed by XRPD.

## C1=C/COCc2cc(ccc2OCCN2CCCC2)Nc2nccc(n2)-c2cccc(c2)COC/1 [maleate salt, 11-(2-pyrrolidin-1-yl-ethoxy)-14,19-dioxa-5,7,26-triaza-tetracyclo[19.3.1.1(2,6).1(8,12)]heptacosa-1(25),2(26),3,5,8,10,12(27),16,21,23-decaene]
[1]; GVS
  hygroscopicity: low hygroscopicity
[1]; GVS, between 0 and 90% RH
  weight taken up in water: less than 0.6%
[1]
  solid form / crystalline pattern by XRPD post GVS: No changes
[2]; a week in the humidity chamber at 60° C. and 96% RH
  changes in the crystalline pattern after storage: no changes
[3]
  change of X-ray diffraction pattern with temperature: no change
[4]; until the salt melts with decomposition at 200° C.
  weight loss in the TGA: no weight loss
[5]; 1,4-dioxane
  Solid Form after maturation: Form A
[5]; 1-butanol
  Solid Form after maturation: Form A
[5]; 1-pentanol
  Solid Form after maturation: Form A
[5]; 1-propanol
  Solid Form after maturation: Form A
[5]; 2-butanol
  Solid Form after maturation: Form A
[5]; 2-methoxy ethanol
  Solid Form after maturation: Form A
[5]; 3-methyl-1-butanol
  Solid Form after maturation: Form A
[5]; 27 different solvents
  solid forms identified after maturation, all cases: only one solid form
[5]; Acetonitrile
  Solid Form after maturation: Form A
[5]; Cyclohexane
  Solid Form after maturation: Form A
[5]; DMSO
  Solid Form after maturation: Form A
[5]; Dicloromethane
  Solid Form after maturation: Form A
[5]; Ethanol
  Solid Form after maturation: Form A
[5]; Ethyl acetate
  Solid Form after maturation: Form A
[5]; Heptane
  Solid Form after maturation: Form A
[5]; IPA
  Solid Form after maturation: Form A
[5]; Isobutyl acetate
  Solid Form after maturation: Form A
[5]; Isopropyl acetate
  Solid Form after maturation: Form A
[5]; Methyl isobutyl ketone
  Solid Form after maturation: Form A
[5]; Methylethyl ketone
  Solid Form after maturation: Form A
[5]; Nitromethane
  Solid Form after maturation: Form A
[5]; Propyl acetate
  Solid Form after maturation: Form A
[5]; TBME
  Solid Form after maturation: Form A
[5]; Tetrahydrofuran
  Solid Form after maturation: Form A
[5]; Toluene
  Solid Form after maturation: Form A
[5]; Water
  Solid Form after maturation: Form A
[5]; acetone
  Solid Form after maturation: Form A
[5]; methanol
  Solid Form after maturation: Form A

## C1=CCOCc2cc(ccc2OCCN2CCCC2)Nc2nccc(n2)-c2cccc(c2)COC1.Cl [Batch HCl 4, 11-(2-pyrrolidin-1-yl-ethoxy)-14,19-dioxa-5,7,26-triaza-tetracyclo[19.3.1.1(2,6).1(8,12)]heptacosa-1(25),2(26),3,5,8,10,12(27),16,21,23-decaene hydrochloride]
[1]; GVS
  mass gained on going from 40% RH to 90% RH (water absorption): 1.6%
[1]; GVS, hydrochloride
  mass lost on going from 90% RH to dryness: 2.8%
[1]; hydrochloride
  solid form / crystalline pattern by XRPD post GVS: unchanged
[4]; TGA, between ambient and 108° C.
  mass lost: 6.5%

## C1=CCOCc2cc(ccc2OCCN2CCCC2)Nc2nccc(n2)-c2cccc(c2)COC1.Cl [Batch HCl 2, 11-(2-pyrrolidin-1-yl-ethoxy)-14,19-dioxa-5,7,26-triaza-tetracyclo[19.3.1.1(2,6).1(8,12)]heptacosa-1(25),2(26),3,5,8,10,12(27),16,21,23-decaene hydrochloride]
[4]; TGA
  water lost in the first phase of the TGA: 5.6%

## C1=CCOCc2cc(ccc2OCCN2CCCC2)Nc2nccc(n2)-c2cccc(c2)COC1.Cl [Batch HCl 6, 11-(2-pyrrolidin-1-yl-ethoxy)-14,19-dioxa-5,7,26-triaza-tetracyclo[19.3.1.1(2,6).1(8,12)]heptacosa-1(25),2(26),3,5,8,10,12(27),16,21,23-decaene hydrochloride]
[1]; GVS
  mass gained on going from 40% RH to 90% RH (water absorption): 1.6%
[1]; GVS, hydrochloride
  mass lost on going from 90% RH to dryness: 2.4%
[1]; hydrochloride
  solid form / crystalline pattern by XRPD post GVS: unchanged
[2]; 40° C./75% RH, 0 hrs
  solid form by XRPD after storage: Group three.
[2]; 40° C./75% RH, 24 hrs
  solid form by XRPD after storage: Group three.
[2]; 40° C./75% RH, 48 hrs
  solid form by XRPD after storage: Group three.
[2]; 40° C./75% RH, 72 hrs
  solid form by XRPD after storage: Group one.
[2]; 60° C./96% RH, 0 hrs
  solid form by XRPD after storage: Group three.
[2]; 60° C./96% RH, 24 hrs
  solid form by XRPD after storage: Group one.
[4]; until degradation at around 240° C.
  weight loss in the TGA: very little weight loss

## C1=CCOCc2cc(ccc2OCCN2CCCC2)Nc2nccc(n2)-c2cccc(c2)COC1.Cl [Batch HCl 1, 11-(2-pyrrolidin-1-yl-ethoxy)-14,19-dioxa-5,7,26-triaza-tetracyclo[19.3.1.1(2,6).1(8,12)]heptacosa-1(25),2(26),3,5,8,10,12(27),16,21,23-decaene hydrochloride]
[1]; GVS, after dryness
  mass regained on going to 40% RH: 2%
[1]; GVS, at 90% RH
  adsorption of water in the initial adsorption cycle: 5.5%
[1]; GVS, whole experiment
  total gain of mass: 2%
[1]; GVS, corresponds to a dihydrate
  water content after the gain: 6.5%
[1]; GVS, hydrochloride
  mass lost on going from 90% RH to dryness: 5%
[4]; TGA, up to 100° C.
  two stage weight loss, total: 4.5%

## C1=CCOCc2cc(ccc2OCCN2CCCC2)Nc2nccc(n2)-c2cccc(c2)COC1.Cl [Batch HCl 3, 11-(2-pyrrolidin-1-yl-ethoxy)-14,19-dioxa-5,7,26-triaza-tetracyclo[19.3.1.1(2,6).1(8,12)]heptacosa-1(25),2(26),3,5,8,10,12(27),16,21,23-decaene hydrochloride]
[4]; TGA
  total weight lost in the TGA: 3.4%
  water lost in the first phase of the TGA: 1.5%
[4]; TGA, at 165° C.
  another loss: 1.97%
